These results are taken from patent US20230053328A9, “COMBINATION THERAPIES USING CDK INHIBITORS” (Pfizer Inc., priority 2019, published 2023).

For the experiment, the system named is MC38 syngeneic mouse tumor model. The experiment in a line: MC38 syngeneic mouse tumor model, tumor growth inhibition and survival (Example 1). The class given is in vivo. The protocol:
MC38 cells were obtained from American Type Culture Collection (ATCC) and cultured in Roswell Park Memorial Institute (RPMI1640) supplemented with 10% fetal bovine serum (FBS). All cells were maintained in a humidified incubator at 37° C. with 5% carbon dioxide (CO2). Female C57/BL6 mice were obtained from Jackson Laboratories at 8 weeks of age. To generate the syngeneic model, 0.5 million MC38 tumor cells were subcutaneously implanted into the right flank of female C57/BL6 mice. Tumor bearing mice were randomized into six treatment groups based on average tumor sizes of approximately 70 mm^3 per group, on Day 9 post tumor cell implantation. […]
Tumor volumes were measured three times a week. Tumor volume was calculated based on two-dimensional caliper measurement with cubic millimeter volume calculated using the formula (length×width2)×0.5. […] Statistical significance determined using the Holm-Sidak method, with alpha=0.05.

`C[C@@]1(O)CCC[C@H]1n1c(=O)c(C(F)F)cc2cnc(NC3CCN(S(C)(=O)=O)CC3)nc21` [PF-06873600, 6-(difluoromethyl)-8-((1R,2R)-2-hydroxy-2-methylcyclopentyl)-2-(1-(methylsulfonyl)piperidin-4-ylamino)pyrido[2,3-d]pyrimidin-7(8H)-one]: the “synergy with OX40/4-1BB immune checkpoint modulators (in words)” value (MC38 syngeneic mouse tumor model, example heading) is on record as “Synergizes”. Besides, the “tumor growth inhibition (in words)” value (MC38 tumors in C57/BL6 mice, Day 27 post-treatment initiation) is listed as “did not significantly inhibit tumor growth”.
